The test system of the experiment is L1210 leukemia ip in BDF1 mice, survival T/C. The experiment in a line: NCI In Vivo Anticancer Drug Screen. Data for tumor model L1210 Leukemia (intraperitoneal) in B6D2F1 (BDF1) mice. Particulars: endpoint: mean survival time, higher = longer survival. Put shortly:
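Survival endpoint. Drug-treated group vs vehicle group, expressed as T divided by C. Tumor passaged by transplantation.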

Setting [1] is: dose: 100.0 mg/kg/injection, schedule: Q01DX009 (ip), vehicle: acetone.
[2] abbreviates: dose: 200.0 mg/kg/injection, schedule: Q01DX009 (ip), vehicle: acetone.
Where [3] appears, read: dose: 100.0 mg/kg/injection, schedule: Q04DX003 (ip), vehicle: saline with Tween-80.
Where [4] appears, read: dose: 200.0 mg/kg/injection, schedule: Q04DX003 (ip), vehicle: saline with Tween-80.
The mark [5] stands for this setting: dose: 100.0 mg/kg/injection, schedule: Q01DX001 (ip), vehicle: saline.
Setting [6] is: dose: 100.0 mg/kg/injection, schedule: Q04DX003 (ip), vehicle: saline.
Setting [7] is: dose: 200.0 mg/kg/injection, schedule: Q01DX001 (ip), vehicle: saline.
Setting [8] is: dose: 200.0 mg/kg/injection, schedule: Q04DX003 (ip), vehicle: saline.
The mark [9] stands for this setting: dose: 400.0 mg/kg/injection, schedule: Q04DX003 (ip), vehicle: saline.
Setting [10] is: dose: 100.0 mg/kg/injection, schedule: Q04DX003 (ip), vehicle: Klucel (hydroxypropylcellulose) (HPC).
The mark [11] stands for this setting: dose: 200.0 mg/kg/injection, schedule: Q04DX003 (ip), vehicle: Klucel (hydroxypropylcellulose) (HPC).
Setting [12] is: dose: 400.0 mg/kg/injection, schedule: Q04DX003 (ip), vehicle: Klucel (hydroxypropylcellulose) (HPC).

Where “and” joins values, the source holds several entries; their conditions need not be identical. Identical values can stand only once. Toxic doses and inconclusive results are not listed.

`CCCC1OCC(C)C(C)O1` (stereo not given): the T/C was 101 % of control (dose: 50.0 mg/kg/injection, schedule: Q01DX009 (ip), vehicle: acetone); 98 % of control under setting [1]; 106 % of control (dose: 100.0 mg/kg/injection, schedule: Q04DX003 (ip), vehicle: acetone); 112 % of control under setting [2]; 109 % of control (dose: 200.0 mg/kg/injection, schedule: Q04DX003 (ip), vehicle: acetone); 123 % of control (dose: 400.0 mg/kg/injection, schedule: Q04DX003 (ip), vehicle: acetone).

Take `CCCCP(=O)(CCCC)CCP(=O)(CCCC)CCCC`: the T/C runs as follows: under setting [3], 88 % of control; under setting [4], 97 % of control.

With `O=S1(=O)C=Cc2ccccc21`, the T/C runs as follows: under setting [5], 106 % of control; under setting [1], 92 % of control; under setting [6], 95 % of control; under setting [7], 106 % of control; under setting [2], 91 % of control; under setting [8], 97 % of control. The T/C by setting is: (dose: 400.0 mg/kg/injection, schedule: Q01DX001 (ip), vehicle: saline) 100 % of control; (dose: 400.0 mg/kg/injection, schedule: Q01DX009 (ip), vehicle: acetone) 97 % of control; under setting [9], 88 % of control.

As for `O=C(Nc1ccc2c(c1)C(Br)c1ccccc1-2)C(F)(F)F` (stereo not given), the T/C is 98 % of control (dose: 100.0 mg/kg/injection, schedule: Q01DX009 (ip), vehicle: Klucel (hydroxypropylcellulose) (HPC)); 97 % of control under setting [10]; 93 % of control (dose: 200.0 mg/kg/injection, schedule: Q01DX009 (ip), vehicle: Klucel (hydroxypropylcellulose) (HPC)); 97 % of control under setting [11]; 97 % of control under setting [12].

On to `CCC1(c2ccccc2)C(=O)N(COCc2ccccc2)C(=O)N(COCc2ccccc2)C1=O`, for which the T/C reads like this: (dose: 100.0 mg/kg/injection, schedule: Q01DX009 (ip), vehicle: saline with Tween-80) 98 % of control; (dose: 100.0 mg/kg/injection, schedule: Q04DX002 (ip), vehicle: saline with Tween-80) 98 % of control; (dose: 200.0 mg/kg/injection, schedule: Q01DX009 (ip), vehicle: saline with Tween-80) 102 % of control; (dose: 200.0 mg/kg/injection, schedule: Q04DX002 (ip), vehicle: saline with Tween-80) 95 % of control; (dose: 400.0 mg/kg/injection, schedule: Q01DX009 (ip), vehicle: saline with Tween-80) 95 % of control; (dose: 400.0 mg/kg/injection, schedule: Q04DX002 (ip), vehicle: saline with Tween-80) 98 % of control.

As for `O=c1c2ccccc2sc2c1ccc1ccccc12`, the T/C reads like this: under setting [10], 100 % of control; under setting [11], 103 % of control; under setting [12], 96 % of control.

Consider `O=C(O)c1ccc(F)c(F)c1F`, for which the T/C (dose: 100.0 mg/kg/injection, schedule: Q04DX002 (ip), vehicle: other) was 121 % of control and the T/C (dose: 200.0 mg/kg/injection, schedule: Q04DX002 (ip), vehicle: other) was 115 % of control.

For `CCCCn1cnc2c(=S)nc[nH]c21`, the T/C was 98 % of control (dose: 5.0 mg/kg/injection, schedule: Q01DX Z (ip), vehicle: carboxymethylcellulose (CMC)); 103 % of control (dose: 8.0 mg/kg/injection, schedule: Q01DX Z (ip), vehicle: carboxymethylcellulose (CMC)); 102 % of control (dose: 10.0 mg/kg/injection, schedule: Q01DX Z (ip), vehicle: carboxymethylcellulose (CMC)); 103 % of control (dose: 16.0 mg/kg/injection, schedule: Q01DX Z (ip), vehicle: carboxymethylcellulose (CMC)); 94 % of control (dose: 16.0 mg/kg/injection, schedule: Q01DX Z (ip), vehicle: saline); 109 % of control (dose: 16.0 mg/kg/injection, schedule: Q01DX Z (oral), vehicle: carboxymethylcellulose (CMC)). The T/C runs as follows: (dose: 20.0 mg/kg/injection, schedule: Q01DX Z (ip), vehicle: carboxymethylcellulose (CMC)) 104 % of control; (dose: 32.0 mg/kg/injection, schedule: Q01DX009 (ip), vehicle: saline) 101 % of control; (dose: 32.0 mg/kg/injection, schedule: Q01DX Z (ip), vehicle: carboxymethylcellulose (CMC)) 120 % of control; (dose: 32.0 mg/kg/injection, schedule: Q01DX Z (ip), vehicle: saline) 97 % of control; (dose: 32.0 mg/kg/injection, schedule: Q01DX Z (oral), vehicle: carboxymethylcellulose (CMC)) 112 % of control; (dose: 40.0 mg/kg/injection, schedule: Q01DX Z (ip), vehicle: carboxymethylcellulose (CMC)) 112 % of control. The T/C (dose: 64.0 mg/kg/injection, schedule: Q01DX009 (ip), vehicle: saline) was 115 % of control and 121 % of control; the T/C (dose: 64.0 mg/kg/injection, schedule: Q01DX Z (ip), vehicle: saline) is 123 % of control; the T/C (dose: 64.0 mg/kg/injection, schedule: Q01DX Z (oral), vehicle: carboxymethylcellulose (CMC)) is 117 % of control; the T/C (dose: 86.0 mg/kg/injection, schedule: Q02DX010 (ip), vehicle: carboxymethylcellulose (CMC)) is 117 % of control; the T/C (dose: 88.0 mg/kg/injection, schedule: Q02DX010 (ip), vehicle: carboxymethylcellulose (CMC)) is 116 % of control; the T/C (dose: 100.0 mg/kg/injection, schedule: Q01DX015 (ip), vehicle: carboxymethylcellulose (CMC)) was 178 % of control. The T/C (dose: 160.0 mg/kg/injection, schedule: Q01DX015 (ip), vehicle: carboxymethylcellulose (CMC)) was 152 % of control; the T/C (dose: 225.0 mg/kg/injection, schedule: Q01DX015 (ip), vehicle: carboxymethylcellulose (CMC)) is 124 % of control; the T/C (dose: 240.0 mg/kg/injection, schedule: Q01DX015 (ip), vehicle: carboxymethylcellulose (CMC)) is 116 % of control; the T/C (dose: 256.0 mg/kg/injection, schedule: Q01DX009 (ip), vehicle: saline) is 121 % of control; the T/C (dose: 256.0 mg/kg/injection, schedule: Q01DX Z (ip), vehicle: saline) was 100 % of control; the T/C (dose: 320.0 mg/kg/injection, schedule: Q01DX015 (ip), vehicle: carboxymethylcellulose (CMC)) was 92 % of control. Also, the T/C (dose: 335.0 mg/kg/injection, schedule: Q01DX015 (ip), vehicle: carboxymethylcellulose (CMC)) is 98 % of control.

As to `CCOC(=O)C(=CNc1cnc(SC)[nH]c1=O)C(=O)OCC`, the T/C by setting is: under setting [6], 91 % of control; under setting [8], 93 % of control; under setting [9], 89 % of control.

For `COCCOC(=O)c1ccc(C(=N)N)cc1`, the T/C is, setting by setting: under setting [5], 106 % of control; under setting [7], 100 % of control.

As to `CNC(C)(C)C`, the T/C is 93 % of control under setting [3]; 93 % of control under setting [4]; 86 % of control (dose: 400.0 mg/kg/injection, schedule: Q04DX003 (ip), vehicle: saline with Tween-80).

On to `N#Cc1sc2ccccc2c1CBr`, for which the T/C (dose: 6.25 mg/kg/injection, schedule: Q01DX009 (ip), vehicle: Klucel (hydroxypropylcellulose) (HPC)) is 93 % of control; the T/C (dose: 12.5 mg/kg/injection, schedule: Q01DX009 (ip), vehicle: Klucel (hydroxypropylcellulose) (HPC)) was 94 % of control; the T/C (dose: 25.0 mg/kg/injection, schedule: Q01DX009 (ip), vehicle: Klucel (hydroxypropylcellulose) (HPC)) is 100 % of control; the T/C under setting [10] was 100 % of control; the T/C under setting [11] was 94 % of control.

For the compound `CCOC(=O)C1CC(=O)c2c1ccc1ccccc21` (stereo not given), the T/C is, setting by setting: (dose: 75.0 mg/kg/injection, schedule: Q01DX001 (ip), vehicle: other) 105 % of control; (dose: 150.0 mg/kg/injection, schedule: Q01DX001 (ip), vehicle: other) 97 % of control; (dose: 300.0 mg/kg/injection, schedule: Q01DX001 (ip), vehicle: other) 96 % of control.

Regarding `NC(CCl)C(=O)O` (stereo not given), the T/C was 103 % of control (dose: 6.25 mg/kg/injection, schedule: Q01DX001 (ip), vehicle: saline); 101 % of control (dose: 12.5 mg/kg/injection, schedule: Q01DX001 (ip), vehicle: saline); 103 % of control (dose: 25.0 mg/kg/injection, schedule: Q01DX001 (ip), vehicle: saline); 97 % of control (dose: 50.0 mg/kg/injection, schedule: Q01DX001 (ip), vehicle: saline); 92 % of control under setting [5]; 90 % of control under setting [7].

The record behind these values is PubChem BioAssay AID248 (DTP/NCI, 2004).
